Measurements as given in patent US11351170B2, “Substituted pyrimidines as CDK4/6 inhibitors” (priority 2017, dated 2022).
“And” between values parts separate entries of the source, which are not always exact repeats. Equal values may be shown once. Read-outs that look alike come from different tables or passages of the source.

What was measured:
[1] = target: CDK4 (Homo sapiens (Human), UniProt P11802); test: CDK4 Inhibition Assay; type: biochemical
Experimental: (§1) CDK4 Inhibition Assay. […] The same volume of DMSO was adopted as high control (HC). 20 nL of compound solution in DMSO (diluted) were dispensed into anew 384-well assay plate by Echo 550. […] Kinase assay buffer supplemented with substrate peptides was employed as low control (LC) to monitor the background. 400 µM ATP was prepared in kinase assay buffer containing and 15 μL of ATP solution was added to each well to start the reaction. The assay plate was incubated at 25° C. for 90 minutes and the reaction was stopped by adding 40 μL of 0.5 M EDTA.
Phosphorylated fluorescent-tagged peptides were differentiated from non-phosphorylated peptides by separating using Caliper EZ Reader II and the detection was directly converted to conversion ratio (ratio of phosphorylated to non-phosphorylated peptide).
For estimation of IC50, the % substrate conversion values are transformed to % relative activity by applying the following equation: […]

[2] = target: CDK6 (Homo sapiens (Human), UniProt Q00534); test: CDK6 Inhibition Assay; type: biochemical
Sequence of CDK6 (Q00534 whole entry): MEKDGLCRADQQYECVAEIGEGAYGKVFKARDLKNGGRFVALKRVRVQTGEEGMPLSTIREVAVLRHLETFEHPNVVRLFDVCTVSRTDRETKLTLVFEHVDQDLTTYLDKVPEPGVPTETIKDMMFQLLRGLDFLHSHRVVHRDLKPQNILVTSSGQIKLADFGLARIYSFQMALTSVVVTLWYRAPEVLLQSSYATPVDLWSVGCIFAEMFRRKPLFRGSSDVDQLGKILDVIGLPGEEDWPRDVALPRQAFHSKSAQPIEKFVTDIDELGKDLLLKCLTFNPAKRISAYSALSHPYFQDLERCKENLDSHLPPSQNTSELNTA
Sequence of CDK6 (P30281 whole entry partner): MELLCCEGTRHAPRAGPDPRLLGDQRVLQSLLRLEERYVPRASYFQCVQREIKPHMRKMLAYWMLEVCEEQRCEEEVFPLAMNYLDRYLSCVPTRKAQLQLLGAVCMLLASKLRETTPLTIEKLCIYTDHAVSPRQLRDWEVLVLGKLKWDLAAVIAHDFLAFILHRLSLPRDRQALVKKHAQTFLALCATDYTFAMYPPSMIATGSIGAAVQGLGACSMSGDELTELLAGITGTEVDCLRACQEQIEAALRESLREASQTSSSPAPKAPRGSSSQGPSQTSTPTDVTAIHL
Experimental: as §1, with “CDK6” for “CDK4”, “nL” for “nL of”, “a new” for “anew”

[3] = target: CDK2 (Homo sapiens (Human), UniProt P24941); test: CDK2 Inhibition Assay; type: biochemical
Experimental: (§2) CDK2 Inhibition Assay. […] The same volume of DMSO was adopted as high control. 20 nL of the test compound solution in DMSO were dispensed into a new 384-well assay plate by Echo 550. […] Kinase assay buffer supplemented with substrate peptides was employed as low control to monitor the background. 400 µM ATP was prepared in kinase assay buffer containing and 5 μL of ATP solution was added to each well to start the reaction. The assay plate was incubated at 25° C. for 90 minutes and the reaction was stopped by adding 40 μL of 0.5 M EDTA.
Phosphorylated fluorescent-tagged peptides were differentiated from non-phosphorylated peptides by separating using Caliper EZ Reader II and the detection was directly converted to conversion ratio.

[4] = target: CDK5 (Homo sapiens (Human), UniProt Q00535); test: CDK5 Inhibition Assay; type: biochemical
Sequence of CDK5 (Q00535 whole entry): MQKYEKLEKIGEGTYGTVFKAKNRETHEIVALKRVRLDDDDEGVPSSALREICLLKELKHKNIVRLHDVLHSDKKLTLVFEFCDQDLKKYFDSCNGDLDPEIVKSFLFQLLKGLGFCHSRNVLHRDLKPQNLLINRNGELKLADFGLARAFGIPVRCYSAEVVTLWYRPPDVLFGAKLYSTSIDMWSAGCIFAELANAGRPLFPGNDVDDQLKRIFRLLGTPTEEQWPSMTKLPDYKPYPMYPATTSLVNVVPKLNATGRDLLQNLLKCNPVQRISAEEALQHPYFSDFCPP
Sequence of CDK5 (Q15078 99-307 partner): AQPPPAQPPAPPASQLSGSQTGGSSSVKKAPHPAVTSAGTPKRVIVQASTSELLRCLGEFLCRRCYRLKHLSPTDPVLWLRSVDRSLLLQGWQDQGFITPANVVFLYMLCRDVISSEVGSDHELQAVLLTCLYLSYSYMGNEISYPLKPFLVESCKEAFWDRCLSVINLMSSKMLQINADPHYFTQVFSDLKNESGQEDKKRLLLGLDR
Experimental: as §2, with “CDK5” for “CDK2”, “40” for “400”

[5] = tested on: HSPCs; conditions: CDK4/6 dependent subsets of healthy cells such as HSPCs; cited from earlier work
[6] = Metabolic stability in human liver microsomes; type: in vitro ADME; conditions: human liver microsomes 0.5 mg/mL
Experimental: (§3) Metabolic stability of compounds is assessed at […] with human, rat, mouse, dog, and monkey liver microsomes (0.5 mg/mL). Compound and protein are equilibrated at 37° C. for 5 min prior to reaction initiation with co-factor NADPH. […] After quenching and centrifugation, supernatants were analyzed by LC-MS with methods specific to compounds tested.

[7] = Metabolic stability in rat liver microsomes; type: in vitro ADME; conditions: rat liver microsomes 0.5 mg/mL
Experimental: as §3

[8] = Metabolic stability in mouse liver microsomes; type: in vitro ADME; conditions: mouse liver microsomes 0.5 mg/mL
Experimental: as §3

[9] = Metabolic stability in dog liver microsomes; type: in vitro ADME; conditions: dog liver microsomes 0.5 mg/mL
Experimental: as §3

[10] = Metabolic stability in monkey liver microsomes; type: in vitro ADME; conditions: monkey liver microsomes 0.5 mg/mL
Experimental: as §3

[11] = tested on: HS68 cells; conditions: HS68 cells treated for 24 hours
Experimental: HS68 cells (human skin fibroblast cell line, ATCC) were treated for 24 hours with compounds of the present invention at 0, 1, 3, 10, 30, 100, 300, or 1,000 nmol/L final concentration. Cells were harvested and fixed in ice-cold 70% ethanol (Sigma-Aldrich). Fixed cells were washed with PBS, stained with 40 μg/mL propidium iodide (Thermofisher Scientific), 10 g RNAseA (Sigma-Aldrich) in PBS-CMF (calcium magnesium free). Samples were processed using flow cytometer (Fisher), and cell-cycle analysis was completed using FlowJo software (Tree Star).

[12] = Mouse pharmacokinetics (p.o. and i.v.)
Experimental: Blood samples were taken at 0.083, 0.25, 0.5, 1.0, 3.0, 6.0 and 24 hours post i.v. dosing and at 0.25, 0.5, 1.0, 3.0, 6.0 and 24 hours post p.o. dosing. The plasma concentration of compounds were determined by HPLC.

Sequence of CDK4 (P11802 whole entry): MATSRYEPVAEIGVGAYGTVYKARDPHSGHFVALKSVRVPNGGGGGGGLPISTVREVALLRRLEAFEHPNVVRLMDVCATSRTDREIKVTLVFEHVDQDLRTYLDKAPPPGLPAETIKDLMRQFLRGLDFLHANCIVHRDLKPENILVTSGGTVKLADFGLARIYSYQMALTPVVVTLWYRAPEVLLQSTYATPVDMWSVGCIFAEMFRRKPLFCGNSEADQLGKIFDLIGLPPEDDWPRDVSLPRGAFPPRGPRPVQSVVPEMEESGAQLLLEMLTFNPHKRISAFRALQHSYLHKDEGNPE
Sequence of CDK4 (P30281 whole entry partner): as the sequence (P30281 whole entry partner) above

Row | SMILES | IC50 [1] [nM] | IC50 [2] [nM] | IC50 ([3]; read-out: CDK2 IC50) | IC50 [4] [nM] | further results
1 | CN1CCC(COc2ccc(Nc3ncc(F)c(-c4cc(F)c5nc6n(c5c4)C(C)(C)CC6)n3)nc2)CC1 [Example 12, 5-fluoro-4-(5-fluoro-1,1-dimethyl-2,3-dihydro-1H-benzo[d]pyrrolo[1,2-a]imidazol-7-yl)-N-(5-((1-methylpiperidin-4-yl)methoxy)pyridin-2-yl)pyrimidin-2-amine] | 0.11 | 1.89 | 55.2 nM | 159 | 
2 | CN(C)[C@H]1CCN(C(=O)c2ccc(Nc3ncc(F)c(-c4cc(F)c5nc6n(c5c4)C(C)(C)CC6)n3)nc2)C1 [Example 6, (S)-(3-(dimethylamino)pyrrolidin-1-yl)(6-(5-fluoro-4-(5-fluoro-1,1-dimethyl-2,3-dihydro-1H-benzo[d]pyrrolo[1,2-a]imidazol-7-yl)pyrimidin-2-ylamino)pyridin-3-yl)methanone] | 0.2 | 1.19 | 20.4 nM | 19.1 | IC50 [3]: 5.62 nM
3 | CN1CCC(Oc2ccc(Nc3ncc(F)c(-c4cc(F)c5nc6n(c5c4)C(C)(C)CC6)n3)nc2)CC1 [Example 10, 5-fluoro-4-(5-fluoro-1,1-dimethyl-2,3-dihydro-1H-benzo[d]pyrrolo[1,2-a]imidazol-7-yl)-N-(5-(1-methylpiperidin-4-yloxy)pyridin-2-yl)pyrimidin-2-amine] | 0.26 | 2.46 | 64.1 nM | 136 | 
4 | CCN1CCC(COc2ccc(Nc3cc(-c4cc(F)c5nc6n(c5c4)C(C)(C)CC6)c(F)cn3)nc2)CC1 [Example 9, N-(5-((1-ethylpiperidin-4-yl)methoxy)pyridin-2-yl)-5-fluoro-4-(5-fluoro-1,1-dimethyl-2,3-dihydro-1H-benzo[d]pyrrolo[1,2-a]imidazol-7-yl)pyridin-2-amine] | 0.1 | 2.9 | 24.7 nM | 11.3 | IC50 [3]: 14.7 nM
5 | CN1CCN(c2ccc(Nc3ncc4cc5n(c4n3)C3(CCCCC3)CNC5=O)nc2)CC1 [Example G1T28] |  |  |  |  | cell cycle arrest [5]: transient cell cycle arrest
6 | CN(C)[C@H]1CCN(c2ccc(Nc3ncc(F)c(-c4cc(F)c5nc6n(c5c4)C(C)(C)CC6)n3)nc2)C1 [Example 7, (S)—N-(5-(3-(dimethylamino)pyrrolidin-1-yl)pyridin-2-yl)-5-fluoro-4-(5-fluoro-1,1-dimethyl-2,3-dihydro-1H-benzo[d]pyrrolo[1,2-a]imidazol-7-yl)pyrimidin-2-amine] | 0.18 | 3.96 | 65.5 nM | 50.6 | IC50 [3]: 16.1 nM
7 | CC1(C)CCc2nc3c(F)cc(-c4nc(Nc5ccc(OCC6CCN(CCCO)CC6)cn5)ncc4F)cc3n21 [Example 11, 3-(4-((6-(5-fluoro-4-(5-fluoro-1,1-dimethyl-2,3-dihydro-1H-benzo[d]pyrrolo[1,2-a]imidazol-7-yl)pyrimidin-2-ylamino)pyridin-3-yloxy)methyl)piperidin-1-yl)propan-1-ol] | 0.11 | 1.02 | 44.9 nM | 128 | 
8 | CC(=O)c1c(C)c2cnc(Nc3ccc(N4CCNCC4)cn3)nc2n(C2CCCC2)c1=O [PD-0332991] |  |  |  |  | cell cycle arrest [5]: transient cell cycle arrest
9 | CC1(C)CCc2nc3c(F)cc(-c4nc(Nc5ccc6c(n5)CCN(C(=O)CO)C6)ncc4F)cc3n21 [Example 5, 1-(2-(5-fluoro-4-(5-fluoro-1,1-dimethyl-2,3-dihydro-1H-benzo[d]pyrrolo[1,2-a]imidazol-7-yl)pyrimidin-2-ylamino)-7,8-dihydro-1,6-naphthyridin-6 (5H)-yl)-2-hydroxyethanone, reference compound] | 0.12 | 1.87 | 17.6 nM | 36.8 | 
10 | CC1(C)CCc2nc3c(F)cc(-c4nc(Nc5ccc(OC6CCN(CCO)CC6)cn5)ncc4F)cc3n21 [Example 14, 2-(4-(6-(5-fluoro-4-(5-fluoro-1,1-dimethyl-2,3-dihydro-1H-benzo[d]pyrrolo[1,2-a]imidazol-7-yl)pyrimidin-2-ylamino)pyridin-3-yloxy)piperidin-1-yl)ethanol] | 0.25 | 2.72 | 70.3 nM | 213 | 
11 | CCN1CCC(COc2ccc(Nc3ncc(F)c(-c4cc(F)c5nc6n(c5c4)C(C)(C)CC6)n3)nc2)CC1 [Example 8, N-(5-((1-ethylpiperidin-4-yl)methoxy)pyridin-2-yl)-5-fluoro-4-(5-fluoro-1,1-dimethyl-2,3-dihydro-1H-benzo[d]pyrrolo[1,2-a]imidazol-7-yl)pyrimidin-2-amine] |  |  | 368 nM | 705 | IC50 [3]: 285 nM; half-life ([6]; NADPH, 37° C.): 1.34 h; CLint scaled ([6]; scaled): 21.7 mL/min/kg; half-life ([7]; NADPH, 37° C.): 1.29 h; CLint scaled ([7]; scaled): 32.2 mL/min/kg; half-life ([8]; NADPH, 37° C.): 0.45 h; CLint scaled ([8]; scaled): 202 mL/min/kg; half-life ([9]; NADPH, 37° C.): 0.402 h; CLint scaled ([9]; scaled): 143 mL/min/kg; half-life ([10]; NADPH, 37° C.): 0.223 h; CLint scaled ([10]; scaled): 151 mL/min/kg; G1 % (max) [11]: 79.35%; F ([12]; 10 mg/kg p.o. vs 2 mg/kg i.v.): 45.6%; AUC(0-t) ([12]; plasma, iv, 2 mg/kg): 2110 ng·h/mL; Vd ([12]; plasma, iv, 2 mg/kg): 3.71 L/kg; clearance ([12]; plasma, iv, 2 mg/kg): 15.7 mL/min/kg; half-life ([12]; plasma, iv, 2 mg/kg): 3.36 h; AUC(0-t) ([12]; plasma, po, 10 mg/kg): 4820 ng·h/mL; Cmax ([12]; plasma, po, 10 mg/kg): 340 ng/mL; Tmax ([12]; plasma, po, 10 mg/kg): 6 h
12 | CCN1CCN(Cc2ccc(Nc3ncc(F)c(-c4cc(F)c5nn6c(c5c4)CCC6)n3)nc2)CC1 [Example 16, N-(5-((4-ethylpiperazin-1-yl)methyl)pyridin-2-yl)-5-fluoro-4-(6-fluoro-2,3-dihydro-1H-pyrrolo[1,2-b]indazol-8-yl)pyrimidin-2-amine] | 9.46 | 93.7 | > 10000 nM | > 10000 | 
13 | CN1CCC(OCc2ccc(Nc3ncc(F)c(-c4cc(F)c5nc6n(c5c4)C(C)(C)CC6)n3)nc2)CC1 [Example 13, 5-fluoro-4-(5-fluoro-1,1-dimethyl-2,3-dihydro-1H-benzo[d]pyrrolo[1,2-a]imidazol-7-yl)-N-(5-((1-methylpiperidin-4-yloxy)methyl)pyridin-2-yl)pyrimidin-2-amine] | 0.25 | 3.92 | 174 nM | 433 | 
14 | CCN1CCN(c2ccc(Nc3ncc(F)c(-c4cc(F)c5nc6n(c5c4)C(C)(C)CC6)n3)nc2)CC1 [Example 15, N-(5-(4-ethylpiperazin-1-yl)pyridin-2-yl)-5-fluoro-4-(5-fluoro-1,1-dimethyl-2,3-dihydro-1H-benzo[d]pyrrolo[1,2-a]imidazol-7-yl)pyrimidin-2-amine, reference compound] | 0.07 | 0.88 | 117 nM and 21.6 nM | 46.8 | 
15 | CCN1CCC(c2ccc(Nc3ncc(F)c(-c4cc(F)c5nc6n(c5c4)C(C)(C)CC6)n3)nc2)CC1 [Example 3, N-(5-(1-ethylpiperidin-4-yl)pyridin-2-yl)-5-fluoro-4-(5-fluoro-1,1-dimethyl-2,3-dihydro-1H-benzo[d]pyrrolo[1,2-a]imidazol-7-yl)pyrimidin-2-amine, reference compound] | 0.08 | 1.93 | 114 nM and 91 nM | 38.3 | 
